Series [1] relates to indicator aerobic bacteria and molds. The series can be described thus: Preservative challenge test (USP and EP criteria). The conditions noted are these: in the EPO formulation. Type of series: cell-based.
Series [2] is described as follows: Stability of EPO in preserved formulations, reverse phase HPLC assay (% label claim). Type of series: physicochemical. The conditions noted are these: in the presence of thimerosal.
Protocol: Prototype batches were made using these selected preservatives and placed on stability at 5° C. and 25° C. Samples were tested by a reverse phase HPLC method.
Detection of the EPO protein was monitored at 210 nm.
Series [3] in a line: Appearance of the solution when the preservative is used in the EPO formulation. Type of series: physicochemical. As for the experimental part:
Multi-dose EPO-containing solutions were formulated as sterile, non-pyrogenic, colorless aqueous solutions in water for injection at 10,000 units and 20,000 units concentration. Solutions prepared contained a 20 mM phosphate buffer (sodium phosphate monobasic monohydrate, and sodium phosphate dibasic heptahydrate), 0.01% w/v polysorbate 20 as an antiadsorbent, 0.45-0.8% w/v sodium chloride (depending on the preservative system that was used, the amount of sodium chloride was adjusted to produce an Osmolality of approximately 300 mOsm/kg), and a preservative system.

For series [4] the following is noted: pH>3; cited from earlier work.
Where [5] appears, read: preservative in EPO formulation (phosphate buffer, polysorbate 20, sodium chloride, pH approx. 7.0).

SMILES strings stand for the structures. Read-outs that look alike come from different tables or passages of the source.

With `C[CH2][Hg][S]c1ccccc1C(=O)[O-].[Na+]` [Thimerosal], in series [1], the preservative efficacy entry was “good preservative efficacy”. Further, the “chemical stability of the EPO formulation” value in series [2] is recorded as “good chemical stability”. In addition, the appearance of solution entry in series [3] (setting [5]) is listed as “clear”.

On to `O=[N+]([O-])[O-].[Hg+][c]1ccccc1` [phenyl mercuric nitrate], for which the appearance of solution entry in series [3] (setting [5]) is “cloudy”.

As for `CC(C)(O)C(Cl)(Cl)Cl` [chlorobutanol], in series [4], the stability of chlorobutanol result is on record as “not stable”.

With `Oc1ccccc1` [phenol], the appearance of solution entry in series [3] was “hazy to cloudy”.

`COC(=O)c1ccc(O)cc1` [Methyl paraben]: the appearance of solution result in series [3] (setting [5]) is “hazy to cloudy”.

As for `Cc1cccc(O)c1` [m-cresol], in series [3] (setting [5]), the appearance of solution entry is listed as “hazy to cloudy”.

Turning to `CCCOC(=O)c1ccc(O)cc1` [propyl paraben], the appearance of solution entry in series [3] (setting [5]) was “hazy to cloudy”.

Values taken from US7432360B2, “Multi-dose erythropoietin formulations” (Aventis Pharmaceuticals Inc., priority 2005, dated 2008).
